The text below walks through data of US20240343727A1, “PYRIDAZINONE OR PYRIDINONE COMPOUNDS, PREPARATION METHODS AND USES THEREOF” (InventisBio Co., Ltd., priority 2021, published 2024).

pIC50: −log10 of the molar value. Read-outs that look alike come from different tables or passages of the source. Where only a bound is given, the exact number is not on record here.

One assay addresses T1, PARP7 (Homo sapiens, UniProt Q7Z3E1).
T1 sequence (Q7Z3E1 1-657): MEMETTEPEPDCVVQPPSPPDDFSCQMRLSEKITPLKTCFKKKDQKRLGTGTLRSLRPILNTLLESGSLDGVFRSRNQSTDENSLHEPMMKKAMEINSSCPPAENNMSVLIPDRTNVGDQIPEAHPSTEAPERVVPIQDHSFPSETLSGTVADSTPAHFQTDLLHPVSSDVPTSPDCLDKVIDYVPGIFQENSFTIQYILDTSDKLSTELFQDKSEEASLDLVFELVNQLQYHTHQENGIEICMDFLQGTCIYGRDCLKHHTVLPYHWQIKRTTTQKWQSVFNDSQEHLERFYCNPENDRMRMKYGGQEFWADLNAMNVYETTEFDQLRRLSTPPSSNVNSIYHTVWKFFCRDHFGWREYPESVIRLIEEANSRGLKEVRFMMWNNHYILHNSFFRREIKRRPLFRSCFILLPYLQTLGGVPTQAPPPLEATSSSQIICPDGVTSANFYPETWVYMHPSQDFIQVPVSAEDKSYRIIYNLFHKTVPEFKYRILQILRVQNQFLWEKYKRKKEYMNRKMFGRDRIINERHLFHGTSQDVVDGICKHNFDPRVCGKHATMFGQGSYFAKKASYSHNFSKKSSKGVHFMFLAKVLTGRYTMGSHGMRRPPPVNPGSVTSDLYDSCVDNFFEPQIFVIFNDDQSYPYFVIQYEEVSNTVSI
Kind of assay: PARP7 TR-FRET assay (binding, displacement of biotinylated Probe A). As to conditions: 6 nM PARP7, 2 nM Probe A, 25° C., 30 min. The method in brief:
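His-tagged PARP7 at 6 nM was preincubated with compound and 2 nM biotinylated Probe A for 30 min at 25° C (HEPES pH 8.0, NaCl, BSA, DTT, Tween20). Europium-streptavidin/ULight-anti-His FRET was read as the 665/615 nm ratio after a further 30 min. IC50 was fitted from % inhibition normalised to vehicle and blank.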
On the technique in general: In TR-FRET formats the signal depends on donor and acceptor labels being close together.

The test system of the next assay is NCI-H1373 cells. Kind of assay: Inhibition of cancer cell growth in NCI-H1373 cells (Cell-titer Glo, 6 days). The assay is classed as cell-based. As to conditions: read-out: H1373 Cell Proliferation IC50. As to the method: Biological Assay Example B: Inhibition of cancer cell growth in NCI-H1373 cells by PARP7 inhibitors
NCI-H1373 cells were cultured in RPMI 1640 medium supplemented with 10% fetal bovine serum, 100 U/mL penicillin and 100 ug/mL streptomycin in a 37° C., 5% CO2 incubator. Fifteen hundred cells were seeded into each well of 96-well plate in RPMI1640 medium containing 10% fetal bovine serum and incubated overnight. Serial diluted compounds for each well were added at a final DMSO concentration of 0.5% and a day zero plate was collected for analysis. Compounds were incubated with the cells for 6 days. Cell growth was assessed using Cell-titer Glo reagent (Promega #G^7572). The luminescence signal was collected on Tecan Spark plate reader. Cell growth is determined by correcting for the cell count on day zero. Inhibition rate is calculated with the formula of % inhibition=100*(DMSO control-compounds)/(DMSO control-Blank). Cell growth inhibition IC50 is calculated with the equation of Y-Bottom+ (Top-Bottom)/(1+10^((LogIC50−X) *Hill Slope)).

For another assay, the system named is tumor. The following applies: according to the description in clinicaltrials.gov (NCT04053673); cited from earlier work.

On to `N#Cc1cnc(N2CCN(C(=O)CC3CN(c4cc(C(F)(F)F)c(=O)[nH]n4)c4cc(C(F)F)ccc4O3)CC2)nc1` (single isomer, unassigned) [Compound 140], for which the figures for the pIC50 at PARP7 and with NCI-H1373 cells were more than 7.00 and less than 6.00, respectively.
Regarding `O=C(c1cccc(Oc2n[nH]c(=O)c(C(F)(F)F)c2N2CC3(CCC3)C2)c1)N1CCN(c2cnc(C(F)(F)F)cn2)CC1` [Compound 188], the pIC50 is more than 7.00 on PARP7 and more than 7.00 in the assay on NCI-H1373 cells (Homo sapiens, NCI-H1373, 144 h).
As to `O=C(c1cc(Oc2n[nH]c(=O)c(C(F)(F)F)c2N2CC3(CCC3)C2)ccn1)N1CCN(c2ncc(C(F)(F)F)cn2)CC1` [Compound 229], the pIC50 at PARP7 is more than 7.00; in the assay with NCI-H1373 cells (Homo sapiens, NCI-H1373, 144 h), more than 7.00.
Take `O=C(CC1CN(c2cc(C(F)(F)F)c(=O)[nH]n2)c2cc(F)ccc2O1)N1CCN(c2ccc(C3CC3)cn2)CC1` (single isomer, unassigned) [Compound 300]: the pIC50 on PARP7 was more than 7.00; in the assay on NCI-H1373 cells (Homo sapiens, NCI-H1373, 144 h) it was 6.00 to 7.00.
Regarding `O=C(COC1CCNc2c1n[nH]c(=O)c2C(F)(F)F)N1CCN(c2ncc(C(F)(F)F)cn2)CC1` (racemic) [Compound 1], the pIC50 is more than 7.00 on PARP7 and 6.00 to 7.00 with NCI-H1373 cells (Homo sapiens, NCI-H1373, 144 h).
Turning to `Cc1cccc2c(N3CCOC(CC(=O)N4CCN(c5ncc(C(F)(F)F)cn5)CC4)C3)n[nH]c(=O)c12` (single isomer, unassigned) [Compound 101], the pIC50 is 6.00 to 7.00 on PARP7 and less than 6.00 in the assay on NCI-H1373 cells (Homo sapiens, NCI-H1373, 144 h).
Consider `Cc1c(N2C[C@H](CC(=O)N3CCN(c4ncc(C(F)(F)F)cn4)CC3)O[C@@H](C)C2)n[nH]c(=O)c1C(F)(F)F` (single isomer, unassigned) [Compound 42], for which the pIC50 on PARP7 is more than 7.00; in the assay with NCI-H1373 cells (Homo sapiens, NCI-H1373, 144 h) it was less than 6.00.
On the same counts, the results for `Cc1c(Oc2ccnc(C(=O)N3CCN(c4ncc(C(F)(F)F)cn4)CC3)c2)n[nH]c(=O)c1C(F)(F)F` [Compound 21] are more than 7.00 and 6.00 to 7.00.
Consider `Cc1c(N2C[C@@H](CC(=O)N3CCN(c4ncc(C(F)(F)F)cn4)CC3)O[C@H](C)C2)n[nH]c(=O)c1C(F)(F)F` (single isomer, unassigned) [Compound 43], for which the pIC50 at PARP7 was more than 7.00; in the assay on NCI-H1373 cells (Homo sapiens, NCI-H1373, 144 h), 6.00 to 7.00.
Turning to `O=C(COC1CCOc2c1n[nH]c(=O)c2Cl)N1CCN(c2ncc(C(F)(F)F)cn2)CC1` (single isomer, unassigned) [Compound 53], the pIC50 was more than 7.00 at PARP7 and less than 6.00 in the assay on NCI-H1373 cells (Homo sapiens, NCI-H1373, 144 h).
Consider `Cc1ccc2c(=O)[nH]nc(N3CCOC(CC(=O)N4CCN(c5ncc(C(F)(F)F)cn5)CC4)C3)c2c1` (single isomer, unassigned) [Compound 123], for which the pIC50 is more than 7.00 on PARP7 and less than 6.00 with NCI-H1373 cells (Homo sapiens, NCI-H1373, 144 h).
For the compound `N#Cc1cnc(N2CCN(C(=O)CC3CN(c4cc(C(F)(F)F)c(=O)[nH]n4)c4cc(C(F)F)ccc4O3)CC2)nc1` (single isomer, unassigned) [Compound 138], the pIC50 at PARP7 and with NCI-H1373 cells was more than 7.00 each time.
As to `C[C@@H]1CN(C(=O)c2cc(Oc3n[nH]c(=O)c(C(F)(F)F)c3N3CC4(CCC4)C3)ccn2)CCN1c1cnc(C(F)(F)F)cn1` [Compound 353], the pIC50 on PARP7 is more than 7.00; with NCI-H1373 cells (Homo sapiens, NCI-H1373, 144 h) it was more than 7.00.
Take `CN1C[C@@H](OCC(=O)N2CCN(c3ncc(C(F)(F)F)cn3)CC2)c2n[nH]c(=O)c3cc(F)cc1c23` (single isomer, unassigned) [Compound 14]: the pIC50 is more than 7.00 on PARP7 and more than 7.00 in the assay on NCI-H1373 cells (Homo sapiens, NCI-H1373, 144 h).
Regarding `N#Cc1ccc2c(c1)N(c1cc(C(F)(F)F)c(=O)[nH]n1)CC(CC(=O)N1CCN(c3ccc(C(F)(F)F)cn3)CC1)O2` (single isomer, unassigned) [Compound 346], the pIC50 at PARP7 was more than 7.00; in the assay with NCI-H1373 cells (Homo sapiens, NCI-H1373, 144 h) it was less than 6.00.
For `O=C(CC[C@@H]1CCCN1c1cc(C(F)(F)F)c(=O)[nH]n1)N1CCN(c2ncc(C(F)(F)F)cn2)CC1` [Compound 86], the pIC50 was more than 7.00 on PARP7 and more than 7.00 in the assay on NCI-H1373 cells (Homo sapiens, NCI-H1373, 144 h).
With `Cc1c(N2CCOC(CC(=O)N3CCN(c4ncc(C(F)(F)F)cn4)CC3)C2)n[nH]c(=O)c1C(F)(F)F` (single isomer, unassigned) [Compound 39], the pIC50 was more than 7.00 on PARP7 and 6.00 to 7.00 in the assay on NCI-H1373 cells (Homo sapiens, NCI-H1373, 144 h).
For `COC1CC(Nc2c(Oc3cccc(C(=O)N4CCN(c5ncc(C(F)(F)F)cn5)CC4)c3)n[nH]c(=O)c2C(F)(F)F)C1` (centres unmarked) [Compound 168], in that order: more than 7.00 and 6.00 to 7.00.
`N#Cc1ccc2c(c1)N(c1cc(C(F)(F)F)c(=O)[nH]n1)CC(CC(=O)N1CCN(c3ncc(Cl)cn3)CC1)O2` (single isomer, unassigned) [Compound 216]: the pIC50 on PARP7 is more than 7.00; with NCI-H1373 cells (Homo sapiens, NCI-H1373, 144 h) it was more than 7.00.
Consider `O=C(c1cccc(Oc2n[nH]c(=O)c(C(F)(F)F)c2CO)c1)N1CCN(c2ncc(C(F)(F)F)cn2)CC1` [Compound 71], for which the pIC50 on PARP7 was 6.00 to 7.00; with NCI-H1373 cells (Homo sapiens, NCI-H1373, 144 h) it was less than 6.00.
Consider `C[C@@H]1CC[C@@H](CCC(=O)N2CCN(c3ncc(C(F)(F)F)cn3)CC2)N1c1cc(C(F)(F)F)c(=O)[nH]n1` [Compound 156], for which the pIC50 at PARP7 was more than 7.00; with NCI-H1373 cells (Homo sapiens, NCI-H1373, 144 h), more than 7.00.
Take `COC[C@@H]1C[C@@H](OCC(=O)N2CCN(c3ncc(C(F)(F)F)cn3)CC2)c2n[nH]c(=O)c(C(F)(F)F)c2O1` [Compound 57]: the pIC50 at PARP7 is more than 7.00; in the assay with NCI-H1373 cells (Homo sapiens, NCI-H1373, 144 h), more than 7.00.
Take `Cc1c(Oc2cccc(C(=O)N3CCN(c4ccc(C#N)cn4)CC3)c2)n[nH]c(=O)c1C(F)(F)F` [Compound 27]: the pIC50 on PARP7 was more than 7.00; in the assay on NCI-H1373 cells (Homo sapiens, NCI-H1373, 144 h), 6.00 to 7.00.
Consider `C[C@@H](COCCC(=O)N1CCN(c2ncc(C(F)(F)F)cn2)CC1)Nc1cn[nH]c(=O)c1C(F)(F)F` [RBN2397], for which the “tumor growth in animal studies” value with tumor was “inhibit tumor growth”.
As for `O=C(CC1CN(c2n[nH]c(=O)c3ccccc23)CCO1)N1CCN(c2ncc(C(F)(F)F)cn2)CC1` (single isomer, unassigned) [Compound 92], the pIC50 on PARP7 was more than 7.00; in the assay with NCI-H1373 cells (Homo sapiens, NCI-H1373, 144 h), 6.00 to 7.00.
In the case of `O=C(c1cccc(Oc2n[nH]c(=O)c(C(F)(F)F)c2N2CC3(CCC3)C2)c1)N1CCN(c2ncc(Cl)cn2)CC1` [Compound 199], the pIC50 on PARP7 is more than 7.00; with NCI-H1373 cells (Homo sapiens, NCI-H1373, 144 h), more than 7.00.
For `CC(C)(O)c1cnc(N2CCN(C(=O)c3cccc(Oc4n[nH]c(=O)c(C(F)(F)F)c4N4CC5(CCC5)C4)c3)CC2)nc1` [Compound 349], the pIC50 is more than 7.00 on PARP7 and more than 7.00 in the assay on NCI-H1373 cells (Homo sapiens, NCI-H1373, 144 h).
As for `O=C(CC[C@@H]1CCCN1c1n[nH]c(=O)c2ccccc12)N1CCN(c2ncc(C(F)(F)F)cn2)CC1` [Compound 48], the pIC50 is more than 7.00 on PARP7 and more than 7.00 in the assay with NCI-H1373 cells (Homo sapiens, NCI-H1373, 144 h).
With `O=C(CO[C@@H]1CCNc2c1n[nH]c(=O)c2C(F)(F)F)N1CCN(c2ncc(C(F)(F)F)cn2)CC1` (single isomer, unassigned) [Compound 2], the pIC50 at PARP7 was more than 7.00; with NCI-H1373 cells (Homo sapiens, NCI-H1373, 144 h), more than 7.00.
In the case of `O=C(c1cc(Oc2n[nH]c(=O)c(C(F)(F)F)c2N2CC3(CCC3)C2)ccn1)N1CCN(c2cnc(C(F)(F)F)cn2)CC1` [Compound 272], the pIC50 was more than 7.00 at PARP7 and more than 7.00 with NCI-H1373 cells (Homo sapiens, NCI-H1373, 144 h).
Regarding `O=C(CC1CN(c2cc(C(F)(F)F)c(=O)[nH]n2)c2cc(F)ccc2O1)N1CCN(c2cnc(C(F)(F)F)cn2)CC1` (single isomer, unassigned) [Compound 291], the pIC50 at PARP7 was more than 7.00; with NCI-H1373 cells (Homo sapiens, NCI-H1373, 144 h), 6.00 to 7.00.
Take `Cc1c(Oc2ccc(Cl)c(C(=O)N3CCN(c4ncc(C(F)(F)F)cn4)CC3)c2)n[nH]c(=O)c1C(F)(F)F` [Compound 26]: the pIC50 was more than 7.00 on PARP7 and less than 6.00 in the assay on NCI-H1373 cells (Homo sapiens, NCI-H1373, 144 h).
As to `O=C(c1cccc(Oc2cc(C(F)(F)F)c(=O)[nH]n2)c1)N1CCN(c2ncc(C(F)(F)F)cn2)CC1` [Compound 16], the pIC50 on PARP7 is more than 7.00; in the assay with NCI-H1373 cells (Homo sapiens, NCI-H1373, 144 h), less than 6.00.
